In PubChem BioAssay (NCI) one finds TGI and GI50 data, which are given here for twelve molecules.

Converted amounts (≈) assume the structure as drawn.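 All cell lines were grown in 96-well plates and treated with compound for 48 hours. Here, GI50 denotes the concentration required for 50% inhibition of growth. Definition used: TGI = concentration required for complete inhibition of growth.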

Test systems include SR leukemia; EKVX NSCLC; DU-145 prostate; MDA-N; CCRF-CEM leukemia; MDA-MB-231 breast; CAKI-1 renal; SN12C renal; SK-MEL-5 melanoma; SF-268 CNS.
What all share (assay): NCI-60 cell line screen, 48 h

With `Cc1ccc(OCC2=NC3S/C(=C/c4ccc([N+](=O)[O-])o4)C(=O)N3N2)cc1` (stereo unspecified), the TGI worked out at 11.4 µM in the experiment on SR leukemia; 24.5 µM in the experiment with EKVX NSCLC; 20.5 µM with DU-145 prostate; 20.7 µM with MDA-N; 35.3 µM with CCRF-CEM leukemia; 26.6 µM with MDA-MB-231 breast. In addition, the TGI in the experiment with CAKI-1 renal is 32 µM; in the experiment with SN12C renal, 37 µM; in the experiment on SK-MEL-5 melanoma, 21.3 µM; in the experiment on SF-268 CNS, 14.9 µM.

Regarding `COc1cc(C2c3cc4c(cc3[C@@H](Nc3ccc(Oc5ccccc5)cc3)C3COC(=O)[C@H]23)OCO4)cc(OC)c1O` (stereo partly specified), the TGI was > 100 µM with EKVX NSCLC; 4.38 µM with CCRF-CEM leukemia; 6.76 µM in the experiment with CAKI-1 renal; > 25.5 µM in the experiment on SN12C renal; 5.99 µM with SK-MEL-5 melanoma; > 100 µM with SF-268 CNS.

For `CCOC(=O)c1c(-c2cccc(Cl)c2)c(C(=O)OC)c(C)c2sc(C=O)nc12`, the TGI in the experiment with EKVX NSCLC turned out to be 31.9 µM; in the experiment with DU-145 prostate it was 37.8 µM; in the experiment with MDA-N, 56.7 µM; in the experiment with CCRF-CEM leukemia, 37 µM; in the experiment on MDA-MB-231 breast, 34.6 µM; with CAKI-1 renal, 43 µM. Besides, the figures for the TGI in the experiment on SN12C renal, with SK-MEL-5 melanoma and in the experiment on SF-268 CNS were 30.8 µM, 30.4 µM and 38.6 µM, respectively.

On to `Cc1cc2ccc(OC(=O)c3ccc(N=C(N)N)cc3)cc2oc1=O`, for which the TGI with SR leukemia is 58.4 µM; in the experiment on EKVX NSCLC, > 100 µM; in the experiment with DU-145 prostate, > 100 µM; in the experiment with MDA-N, 83.8 µM; in the experiment with CCRF-CEM leukemia, > 100 µM; in the experiment on MDA-MB-231 breast, 49.2 µM. Also, the TGI in the experiment on CAKI-1 renal was > 100 µM; in the experiment with SN12C renal, 64 µM; in the experiment with SK-MEL-5 melanoma it was > 100 µM; in the experiment on SF-268 CNS, 73.8 µM.

In the case of `COC(=O)c1cc(NC(=O)c2cc(NC(=O)Cc3c[nH]c4ccccc34)cn2C)cn1C`, the TGI in the experiment with EKVX NSCLC was 74.3 µM; in the experiment with DU-145 prostate, > 100 µM; in the experiment with MDA-N it was > 100 µM; in the experiment on CCRF-CEM leukemia, > 100 µM; with MDA-MB-231 breast, 77.1 µM; in the experiment on CAKI-1 renal it was > 100 µM. Further, the results for the TGI in the experiment with SN12C renal, with SK-MEL-5 melanoma and with SF-268 CNS were > 100 µM, 63.8 µM and > 100 µM, respectively.

As to `COC(=O)C1=C(OC(=O)/C=C/c2ccc(Cl)cc2)C(C(=O)OC)[C@]2(O)[C@@H](C(=O)OC)[C@H]1C[C@@H](c1ccccc1)[C@@H]2C(=O)OC` (stereo partly specified), the TGI in the experiment on SR leukemia was > 100 µM; in the experiment on EKVX NSCLC, 53.2 µM; in the experiment on DU-145 prostate, > 100 µM; in the experiment with MDA-N, > 23.1 µM; with CCRF-CEM leukemia it was > 100 µM; with MDA-MB-231 breast, > 65.9 µM. Besides, the TGI was > 100 µM in the experiment with CAKI-1 renal, > 29.5 µM in the experiment with SN12C renal, 12.7 µM with SK-MEL-5 melanoma and > 25.4 µM in the experiment with SF-268 CNS.

With `CC1C(=O)c2cc3c(cc2CCN(C)Cc2c1ccc1c2OCO1)OCO3` (stereo unspecified), the GI50 was 13.3 µg/mL in the experiment on SR leukemia; > 75 µg/mL in the experiment on EKVX NSCLC; > 75 µg/mL in the experiment on DU-145 prostate; > 75 µg/mL with MDA-N; 22 µg/mL (≈ 59.9 µM) with CCRF-CEM leukemia; > 75 µg/mL in the experiment with MDA-MB-231 breast. Besides, the GI50 with CAKI-1 renal was > 75 µg/mL; in the experiment with SN12C renal it was > 75 µg/mL; in the experiment on SK-MEL-5 melanoma, 37.1 µg/mL; in the experiment with SF-268 CNS, > 75 µg/mL. For the same molecule, the TGI is 40.9 µg/mL with SR leukemia; > 75 µg/mL in the experiment with EKVX NSCLC; > 75 µg/mL in the experiment with DU-145 prostate; > 75 µg/mL with MDA-N; > 75 µg/mL with CCRF-CEM leukemia; > 75 µg/mL in the experiment with MDA-MB-231 breast. Further, the TGI in the experiment on CAKI-1 renal, in the experiment with SN12C renal, in the experiment with SK-MEL-5 melanoma and in the experiment on SF-268 CNS was > 75 µg/mL each time.

`CS(C)(=O)=Nn1c(=O)n2n(c1=O)C1c3ccccc3C2c2ccccc21`: the TGI in the experiment with SR leukemia, in the experiment with EKVX NSCLC, with DU-145 prostate, with MDA-N, in the experiment on CCRF-CEM leukemia and in the experiment on MDA-MB-231 breast was > 100 µM throughout. Further, the TGI in the experiment on CAKI-1 renal and in the experiment on SK-MEL-5 melanoma was > 100 µM throughout.

`COc1ccc(-c2nn(-c3ccc(NC(=O)c4cc(Cl)cc(Cl)c4)cc3)cc2-c2ccncc2)cc1Cl`: the GI50 is 2.72 µM in the experiment with SR leukemia; > 100 µM with DU-145 prostate; 1.39 µM in the experiment with MDA-MB-231 breast; 3.04 µM in the experiment on CAKI-1 renal; > 100 µM in the experiment on SN12C renal; 8.09 µM with SK-MEL-5 melanoma. In addition, in the experiment on SF-268 CNS, the GI50 is > 100 µM. The TGI was > 100 µM in the experiment on SR leukemia; > 100 µM with DU-145 prostate; 4.85 µM with MDA-MB-231 breast; > 100 µM in the experiment with CAKI-1 renal; > 100 µM in the experiment on SN12C renal; > 100 µM in the experiment with SK-MEL-5 melanoma. The TGI with SF-268 CNS is > 100 µM.

As to `CC1=C[C@@H](C)C[C@]2(C)CC[C@H](O2)[C@]23CC[C@](CO)(C[C@H](O2)[C@@H]2O[C@@](C)(CC2=O)[C@@H](O)[C@H]2CC[C@@]4(CCC[C@@H](O4)[C@H](C)C(=O)O[C@H]4C[C@H]([C@]5(O)OCC[C@H](C)[C@@H]5O)O[C@H]4C=C1)O2)O3`, the TGI in the experiment on SR leukemia is > 10 µM; in the experiment on DU-145 prostate, > 10 µM; in the experiment with MDA-N it was > 10 µM; in the experiment on CCRF-CEM leukemia, > 9.53 µM; in the experiment on MDA-MB-231 breast, 0.217 µM; in the experiment on CAKI-1 renal, 0.107 µM. For the same molecule, the TGI in the experiment on SN12C renal is > 10 µM; with SK-MEL-5 melanoma, > 10 µM; in the experiment with SF-268 CNS it was 0.0252 µM.

As to `COC(=O)C1CC23C4=C(CCC41)CCC1CN4CC(C)C(CC(OC(C)=O)C12COC(C)=O)C43O` (stereo unspecified), the TGI in the experiment with EKVX NSCLC, with DU-145 prostate, in the experiment with MDA-N, in the experiment on CCRF-CEM leukemia, in the experiment with MDA-MB-231 breast and in the experiment on CAKI-1 renal was > 100 µM in each case. Further, the TGI with SN12C renal, in the experiment on SK-MEL-5 melanoma and with SF-268 CNS was > 100 µM throughout.

Consider `Cc1n[n+]([O-])c(C)cc1[N+](=O)[O-]`, for which the TGI in the experiment with EKVX NSCLC was found to be 45.4 µM; in the experiment with DU-145 prostate, 51.2 µM; with CCRF-CEM leukemia, 9.32 µM; in the experiment on MDA-MB-231 breast, 39.8 µM; in the experiment on SN12C renal, 28.1 µM; in the experiment with SK-MEL-5 melanoma, 29.8 µM. The TGI in the experiment on SF-268 CNS is > 100 µM.
